The values below come from patent publication US11286281B2, “Homodetic cyclic peptides targeting alpha-4-beta-7 integrin” (priority 2017, dated 2022).

This assay addresses T1, integrin α4β7 (Homo sapiens, UniProt P13612+P26010).
T1 construct: purchased R&D Systems 5397-A3-050
T1 sequence (P13612 34-970 limits assumed): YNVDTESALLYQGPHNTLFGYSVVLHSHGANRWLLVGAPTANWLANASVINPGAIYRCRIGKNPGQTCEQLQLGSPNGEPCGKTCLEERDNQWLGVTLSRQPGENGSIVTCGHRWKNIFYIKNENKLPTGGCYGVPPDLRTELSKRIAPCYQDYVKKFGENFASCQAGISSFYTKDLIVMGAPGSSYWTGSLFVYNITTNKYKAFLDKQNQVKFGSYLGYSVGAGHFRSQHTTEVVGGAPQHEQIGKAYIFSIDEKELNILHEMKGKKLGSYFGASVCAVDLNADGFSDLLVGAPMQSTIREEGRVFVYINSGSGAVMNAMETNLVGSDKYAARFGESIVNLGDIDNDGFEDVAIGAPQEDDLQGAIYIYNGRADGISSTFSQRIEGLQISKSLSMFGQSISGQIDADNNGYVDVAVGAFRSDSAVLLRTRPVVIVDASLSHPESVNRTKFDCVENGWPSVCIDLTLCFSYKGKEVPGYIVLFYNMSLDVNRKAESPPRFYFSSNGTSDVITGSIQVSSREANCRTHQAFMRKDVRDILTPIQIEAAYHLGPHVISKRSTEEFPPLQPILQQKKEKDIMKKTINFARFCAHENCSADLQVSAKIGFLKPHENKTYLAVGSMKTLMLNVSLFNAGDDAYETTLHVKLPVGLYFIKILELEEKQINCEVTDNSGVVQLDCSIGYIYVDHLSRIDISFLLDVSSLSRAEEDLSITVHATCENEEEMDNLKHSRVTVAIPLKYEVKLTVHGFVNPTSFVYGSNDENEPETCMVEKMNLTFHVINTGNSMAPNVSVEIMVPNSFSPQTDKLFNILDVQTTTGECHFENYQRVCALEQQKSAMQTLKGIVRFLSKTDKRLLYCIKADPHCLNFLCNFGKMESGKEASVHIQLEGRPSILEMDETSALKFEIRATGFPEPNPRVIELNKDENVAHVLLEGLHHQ
T1 sequence (P26010 20-723 limits assumed): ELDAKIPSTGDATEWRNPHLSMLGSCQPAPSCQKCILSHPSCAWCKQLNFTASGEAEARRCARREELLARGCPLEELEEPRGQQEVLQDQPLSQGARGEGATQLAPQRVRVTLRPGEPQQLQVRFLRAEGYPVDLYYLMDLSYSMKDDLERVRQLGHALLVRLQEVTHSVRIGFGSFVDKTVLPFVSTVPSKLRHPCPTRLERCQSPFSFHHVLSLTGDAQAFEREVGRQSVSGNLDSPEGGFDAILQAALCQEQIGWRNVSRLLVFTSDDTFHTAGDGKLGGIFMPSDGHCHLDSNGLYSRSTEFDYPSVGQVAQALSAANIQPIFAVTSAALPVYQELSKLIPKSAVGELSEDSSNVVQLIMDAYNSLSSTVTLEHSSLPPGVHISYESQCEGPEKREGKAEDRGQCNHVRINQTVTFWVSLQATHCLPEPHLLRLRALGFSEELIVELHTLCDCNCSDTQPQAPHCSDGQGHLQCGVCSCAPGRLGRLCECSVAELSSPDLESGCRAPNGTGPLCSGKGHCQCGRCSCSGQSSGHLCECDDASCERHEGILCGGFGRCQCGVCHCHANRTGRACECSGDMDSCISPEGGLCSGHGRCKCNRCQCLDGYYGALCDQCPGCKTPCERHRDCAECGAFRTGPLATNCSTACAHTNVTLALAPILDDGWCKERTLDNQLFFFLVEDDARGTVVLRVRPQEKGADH
Kind of assay: Integrin α4β7-MAdCAM-1 ELISA competition assay. Type of assay: binding. As to conditions: values of the second run. On the procedure:
Integrin α4β7-MAdCAM-1 ELISA Competition Assay
A 96-well Microlon plate (Greiner, 655001) was coated with 100 μl per well of a solution of 1 μg/ml recombinant integrin α4β7 (R&D Systems, 5397-A3-050) in carbonate buffer (50 mM, pH 9.6). The plate was incubated at 4′C overnight. The solution was removed and 250 μl blocking buffer (50 mM Tris, 150 mM NaCl, 1 mM MnCl2, 1% BSA, 0.05% Tween) was added per well. The plate was then incubated for 1 hour at room temperature. The plate was washed three times with wash buffer (50 mM Tris, 100 mM NaCl, 1 mM MnCl2, 0.05% Tween). To each well, 50 μl of compound diluted in assay buffer was added by transfer from a compound serial dilution plate. 50 μl recombinant MAdCAM-Fc (R&D systems, 6056-MC-050) at a concentration of 0.1 μg/ml in assay buffer (50 mM Tris, 150 mM NaCl, 1 mM MnCl2, 0.1% BSA, 0.05% Tween) was added to each well. The plate was incubated at room temperature with shaking (300 rpm) for 2 hours to reach binding equilibrium. Then the plate was washed three times in wash buffer and 100 μl anti-human IgG Fc specific-HRP (Abcam, Ab97225) diluted at 1:2000 in assay buffer was added to each well. The plate was incubated at room temperature for 1 hour under agitation. […] The reaction was stopped after 2 minute-incubation by adding 50 μl of 1M H2SO4 and optical absorbance was read at 450 nm.
Background: An ELISA detects its analyte on a solid surface through an enzyme-linked reagent.

pIC50: −log10 of the molar value. Numbered stars: 1 amine (or outer) side, 2 acyl side, 3 side chain; on linkers, the order of the positions; unused ones are H or OH. Square brackets hold non-standard residues; d marks the D form. Peptide text beside a SMILES is read from it. X1 = O=C(c1ccc(-c2ccc(N3CCNCC3)cc2)c(CN[*:1])c1)[*:2]

The term pIC50 denotes the IC50 on a negative log10 scale, so that one unit is a factor of ten. A higher pIC50 goes with a low IC50.

In turn, `CC(C)C[C@@H]1NC(=O)c2ccc(-c3ccc(N4CCNCC4)cc3)c(c2)CNC(=O)[C@@H]2CCCN2C(=O)[C@H](C)NC(=O)[C@H]([C@@H](C)O)NC(=O)[C@H](CC(=O)O)NC1=O` [Compound 8] (cyclo(P[X1]LDTA)) had a pIC50 of approximately 7.62.
